Results as given in patent US4366149A, “Antitumor anthracycline glycosides, their preparation, intermediates therefor, and compositions and use thereof” (priority 1980, dated 1982).
Values after ≈ are worked out from the molar mass of the structure shown. Like-named read-outs stand apart in the source and are kept apart here.

Experiments:
[1] = system: HeLa cells; experiment: HeLa cells cloning efficiency in vitro; type: cell-based; conditions: for IC50: read-out: ID50 (HeLa cells cloning efficiency); for cytotoxicity on HeLa cells cloning efficiency, in words: in vitro, compared with daunorubicin
Method: Activity on HeLa cells cloning efficiency in vitro. Treatment for 24 hours

[2] = system: P388 ascitic leukemia; experiment: Activity against P388 ascitic leukemia in mice; type: in vivo; conditions: for activity against P388 leukemia, in words: preliminary test in mice
Excerpt: Activity against P388 ascitic leukemia. Treatment i.p. on day one after tumour inoculation.

[3] = 2.9 mg/kg i.p. on day one after tumour inoculation
[4] = 4.4 mg/kg i.p. on day one after tumour inoculation
[5] = 6.6 mg/kg i.p. on day one after tumour inoculation
[6] = Homo sapiens, HeLa, 24 h, read-out: % of controls (HeLa cells cloning efficiency)
[7] = 6 mg/kg i.p. on day one after tumour inoculation
[8] = 9 mg/kg i.p. on day one after tumour inoculation
[9] = 13.5 mg/kg i.p. on day one after tumour inoculation
[10] = 10 mg/kg i.p. on day one after tumour inoculation
[11] = 20 mg/kg i.p. on day one after tumour inoculation
[12] = 40 mg/kg i.p. on day one after tumour inoculation

**Q.** With `COc1cccc2c1C(=O)c1c(O)c3c(c(O)c1C2=O)C[C@@](O)(C(C)=O)C[C@@H]3O[C@H]1C[C@H](N)[C@H](O)[C@H](C)O1` [Daunorubicin, daunorubicin, reference compound] as the compound, how does the activity at 0.0031 µg/mL ([1]; Homo sapiens, HeLa, dose 3.1 ng/ml, treatment for 24 hours, data of 2 experiments, read-out: % of controls (HeLa cells cloning efficiency)) read?
**A.** 88 to 98%

**Q.** And the activity at 0.0062 µg/mL ([1]; Homo sapiens, HeLa, dose 6.2 ng/ml, treatment for 24 hours (daunorubicin: data of 2 experiments), read-out: % of controls (HeLa cells cloning efficiency))?
**A.** 73 to 87%

**Q.** And the IC50 ([1]; Homo sapiens, HeLa, treatment for 24 hours (daunorubicin: data of 2 experiments))?
**A.** 0.012 µg/mL (≈ 0.0227 µM)

**Q.** And the T/C % [2, 3]?
**A.** 181%

**Q.** And the “Toxicity Deaths” value [2, 3]?
**A.** 0/10

**Q.** What about the T/C % [2, 4] of the same compound?
**A.** 140%

**Q.** What about the “Toxicity Deaths” value [2, 4] of the same compound?
**A.** 9/10

**Q.** What about the T/C % [2, 5] of the same compound?
**A.** 118%

**Q.** And the “Toxicity Deaths” value [2, 5]?
**A.** 10/10

**Q.** Which activity at 0.0062 µg/mL [1, 6] does the source give for `COc1cccc2c1C(=O)c1c(O)c3c(c(O)c1C2=O)C[C@@](O)(C(C)=O)C[C@@H]3O[C@H]1C[C@H](N)[C@H](N)[C@H](C)O1` [XOO-O132 (I-A), 4'-amino-4'-deoxy-daunorubicin] here?
**A.** 98%

**Q.** And the activity at 0.025 µg/mL [1, 6]?
**A.** 70%

**Q.** What about the activity at 0.1 µg/mL [1, 6] of the same compound?
**A.** 0%

**Q.** And the IC50 ([1]; Homo sapiens, HeLa, 24 h)?
**A.** 0.035 µg/mL (≈ 0.0665 µM)

**Q.** And the “cytotoxicity on HeLa cells cloning efficiency, in words” value [1]?
**A.** less cytotxic than daunorubicin

**Q.** And the T/C % [2, 7]?
**A.** 181%

**Q.** And the “Toxicity Deaths” value [2, 7]?
**A.** 0/10

**Q.** And the T/C % [2, 8]?
**A.** 190%

**Q.** What about the “Toxicity Deaths” value [2, 8] of the same compound?
**A.** 0/10

**Q.** And the T/C % [2, 9]?
**A.** 222%

**Q.** What about the “Toxicity Deaths” value [2, 9] of the same compound?
**A.** 0/10

**Q.** What about the “activity at the maximal dose tested, in words” value ([2]; P388 leukemia in mice, 13.5 mg/kg) of the same compound?
**A.** highly active

**Q.** And the “toxicity, in words” value ([2]; P388 leukemia in mice, compared with daunorubicin)?
**A.** less toxic than daunorubicin

**Q.** What about the “activity against P388 leukemia, in words” value ([2]; compared with daunorubicin) of the same compound?
**A.** much more active daunorubicin

**Q.** How did the activity at 0.1 µg/mL [1, 6] turn out when `COc1cccc2c1C(=O)c1c(O)c3c(c(O)c1C2=O)C[C@@](O)(C(C)=O)C[C@@H]3O[C@H]1C[C@H](N)[C@@H](NC(=O)C(F)(F)F)[C@H](C)O1` [XOO-O136 (I-B), 4'-deoxy-4'-epi-trifluoroacetamido-daunorubicin] was run?
**A.** 211%

**Q.** What about the activity at 0.4 µg/mL [1, 6] of the same compound?
**A.** 21%

**Q.** And the activity at 1.6 µg/mL [1, 6]?
**A.** 0%

**Q.** And the IC50 ([1]; Homo sapiens, HeLa, 24 h)?
**A.** 0.18 µg/mL (≈ 0.289 µM)

**Q.** What about the “cytotoxicity on HeLa cells cloning efficiency, in words” value [1] of the same compound?
**A.** less cytotxic than daunorubicin

**Q.** What about the T/C % [2, 10] of the same compound?
**A.** 145%

**Q.** And the “Toxicity Deaths” value [2, 10]?
**A.** 0/10

**Q.** And the T/C % [2, 11]?
**A.** 154%

**Q.** What about the “Toxicity Deaths” value [2, 11] of the same compound?
**A.** 0/10

**Q.** What about the T/C % [2, 12] of the same compound?
**A.** 163%

**Q.** What about the “Toxicity Deaths” value [2, 12] of the same compound?
**A.** 2/10

**Q.** And the “activity against P388 leukemia, in words” value ([2]; compared with daunorubicin)?
**A.** much more active daunorubicin
